Measurements from PubChem BioAssay AID1963854 (Molecular Pharmacology Branch, DTP, NCI, 2024).

Tested on: 186277-243-T-J2-PDC complex spheroid viability
Test: Anticancer human tumor 186277-243-T-J2-PDC patient-derived colon adenocarcinoma cell line growth inhibition [POLQ]
Conditions: for IC50: curve of first compound; for viability, T/C: stronger effect = lower value
Outline: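 Patient-derived tumour cells were co-cultured with HUVEC and mesenchymal stem cells as multicellular spheroids at 37 °C. They were treated with POLQ inhibitors (novobiocin, ART-558, RP6685) alone or combined with other agents. Top concentrations were at or near clinical Cmax (otherwise 10 microM; SN-38 at 1 microM), decreasing in half-log steps.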

[1] = second compound 0.0316 µM, first compound 0.0316 µM
[2] = second compound 0.0316 µM, first compound 0.1 µM
[3] = second compound 0.0316 µM, first compound 0.316 µM
[4] = second compound 0.0316 µM, first compound 1 µM
[5] = second compound 0.1 µM, first compound 0.0316 µM
[6] = second compound 0.1 µM, first compound 0.1 µM
[7] = second compound 0.1 µM, first compound 0.316 µM
[8] = second compound 0.1 µM, first compound 1 µM
[9] = second compound 0.316 µM, first compound 0.0316 µM
[10] = second compound 0.316 µM, first compound 0.1 µM
[11] = second compound 0.316 µM, first compound 0.316 µM
[12] = second compound 0.316 µM, first compound 1 µM
[13] = second compound 1 µM, first compound 0.0316 µM
[14] = second compound 1 µM, first compound 0.1 µM
[15] = second compound 1 µM, first compound 0.316 µM
[16] = second compound 1 µM, first compound 1 µM
[17] = second compound 3.16 µM, first compound 0.0316 µM
[18] = second compound 3.16 µM, first compound 0.1 µM
[19] = second compound 3.16 µM, first compound 0.316 µM
[20] = second compound 3.16 µM, first compound 1 µM
[21] = second compound 10 µM, first compound 0.0316 µM
[22] = second compound 10 µM, first compound 0.1 µM
[23] = second compound 10 µM, first compound 0.316 µM
[24] = second compound 10 µM, first compound 1 µM
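Also: spheroids exposed to compounds for seven days.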
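For viability, T/C in this document: 100% = DMSO vehicle control viability.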

Structure (SMILES): CC(=O)O[C@H]1C(=O)[C@@]2(C)[C@H]([C@H](OC(=O)c3ccccc3)[C@]3(O)C[C@H](OC(=O)[C@H](O)[C@@H](NC(=O)c4ccccc4)c4ccccc4)C(C)=C1C3(C)C)[C@]1(OC(C)=O)CO[C@@H]1C[C@@H]2O + COC1C(OC(N)=O)C(O)C(Oc2ccc3c(O)c(NC(=O)c4ccc(O)c(CC=C(C)C)c4)c(=O)oc3c2C)OC1(C)C
- IC50 (second compound 0.0316 µM): < 9.49 nM
- IC50 (second compound 0.1 µM): < 9.49 nM
- IC50 (second compound 0.316 µM): < 9.49 nM
- IC50 (second compound 1 µM): < 9.49 nM
- IC50 (second compound 3.16 µM): < 9.49 nM
- IC50 (second compound 10 µM): < 9.49 nM
- viability, T/C (second compound 0.0316 µM, first compound 0.00949 µM): 18.8%
- viability, T/C (second compound 0.0316 µM, first compound 0.03 µM): 6.51%
- viability, T/C (second compound 0.0316 µM, first compound 0.0949 µM): 3.77%
- viability, T/C (second compound 0.0316 µM, first compound 0.3 µM): 2.87%
- viability, T/C (second compound 0.0316 µM, first compound 0.949 µM): 2.1%
- viability, T/C (second compound 0.0316 µM, first compound 3 µM): 2.04%
- viability, T/C (second compound 0.1 µM, first compound 0.00949 µM): 17.1%
- viability, T/C (second compound 0.1 µM, first compound 0.03 µM): 5.55%
- viability, T/C (second compound 0.1 µM, first compound 0.0949 µM): 3.16%
- viability, T/C (second compound 0.1 µM, first compound 0.3 µM): 3.36%
- viability, T/C (second compound 0.1 µM, first compound 0.949 µM): 2.39%
- viability, T/C (second compound 0.1 µM, first compound 3 µM): 2.52%
- viability, T/C (second compound 0.316 µM, first compound 0.00949 µM): 20.7%
- viability, T/C (second compound 0.316 µM, first compound 0.03 µM): 5.59%
- viability, T/C (second compound 0.316 µM, first compound 0.0949 µM): 3.78%
- viability, T/C (second compound 0.316 µM, first compound 0.3 µM): 2.55%
- viability, T/C (second compound 0.316 µM, first compound 0.949 µM): 2.77%
- viability, T/C (second compound 0.316 µM, first compound 3 µM): 2.42%
- viability, T/C (second compound 1 µM, first compound 0.00949 µM): 19%
- viability, T/C (second compound 1 µM, first compound 0.03 µM): 5.89%
- viability, T/C (second compound 1 µM, first compound 0.0949 µM): 3.25%
- viability, T/C (second compound 1 µM, first compound 0.3 µM): 3.12%
- viability, T/C (second compound 1 µM, first compound 0.949 µM): 2.59%
- viability, T/C (second compound 1 µM, first compound 3 µM): 2.05%
- viability, T/C (second compound 3.16 µM, first compound 0.00949 µM): 17%
- viability, T/C (second compound 3.16 µM, first compound 0.03 µM): 6.12%
- viability, T/C (second compound 3.16 µM, first compound 0.0949 µM): 3.2%
- viability, T/C (second compound 3.16 µM, first compound 0.3 µM): 2.83%
- viability, T/C (second compound 3.16 µM, first compound 0.949 µM): 3.06%
- viability, T/C (second compound 3.16 µM, first compound 3 µM): 2.28%
- viability, T/C (second compound 10 µM, first compound 0.00949 µM): 19.6%
- viability, T/C (second compound 10 µM, first compound 0.03 µM): 5.72%
- viability, T/C (second compound 10 µM, first compound 0.0949 µM): 3.65%
- viability, T/C (second compound 10 µM, first compound 0.3 µM): 2.92%
- viability, T/C (second compound 10 µM, first compound 0.949 µM): 2.88%
- viability, T/C (second compound 10 µM, first compound 3 µM): 2.55%

Structure (SMILES): CCc1c2c(nc3ccc(O)cc13)-c1cc3c(c(=O)n1C2)COC(=O)[C@]3(O)CC + Nc1ccc(C#CCN(C(=O)Cc2ncc(C(F)(F)F)cc2C(F)(F)F)c2ccc(F)cc2)nn1
- IC50 (second compound 0.0316 µM): 30.9 nM
- IC50 (second compound 0.1 µM): 30 nM
- IC50 (second compound 0.316 µM): 26.1 nM
- IC50 (second compound 1 µM): 27.4 nM
- IC50 (second compound 3.16 µM): 25.5 nM
- IC50 (second compound 10 µM): 21.4 nM
- viability, T/C (second compound 0.0316 µM, first compound 0.00316 µM): 114%
- viability, T/C (second compound 0.0316 µM, first compound 0.01 µM): 87.4%
- viability, T/C [1]: 49.6%
- viability, T/C [2]: 26.4%
- viability, T/C [3]: 20.3%
- viability, T/C [4]: 18.1%
- viability, T/C (second compound 0.1 µM, first compound 0.00316 µM): 122%
- viability, T/C (second compound 0.1 µM, first compound 0.01 µM): 87.1%
- viability, T/C [5]: 49.9%
- viability, T/C [6]: 24.7%
- viability, T/C [7]: 20.8%
- viability, T/C [8]: 19.1%
- viability, T/C (second compound 0.316 µM, first compound 0.00316 µM): 128%
- viability, T/C (second compound 0.316 µM, first compound 0.01 µM): 86.9%
- viability, T/C [9]: 43.2%
- viability, T/C [10]: 23.1%
- viability, T/C [11]: 22.4%
- viability, T/C [12]: 19.4%
- viability, T/C (second compound 1 µM, first compound 0.00316 µM): 125%
- viability, T/C (second compound 1 µM, first compound 0.01 µM): 82.5%
- viability, T/C [13]: 46.8%
- viability, T/C [14]: 24.2%
- viability, T/C [15]: 20.6%
- viability, T/C [16]: 18.3%
- viability, T/C (second compound 3.16 µM, first compound 0.00316 µM): 114%
- viability, T/C (second compound 3.16 µM, first compound 0.01 µM): 82.9%
- viability, T/C [17]: 43.5%
- viability, T/C [18]: 20.9%
- viability, T/C [19]: 18.5%
- viability, T/C [20]: 18.1%
- viability, T/C (second compound 10 µM, first compound 0.00316 µM): 100%
- viability, T/C (second compound 10 µM, first compound 0.01 µM): 71.8%
- viability, T/C [21]: 40.2%
- viability, T/C [22]: 18.5%
- viability, T/C [23]: 17%
- viability, T/C [24]: 15.9%

Structure (SMILES): CNCc1ccc(-c2[nH]c3cc(F)cc4c3c2CCNC4=O)cc1 + Nc1ccc(C#CCN(C(=O)Cc2ncc(C(F)(F)F)cc2C(F)(F)F)c2ccc(F)cc2)nn1
- IC50 (second compound 0.0316 µM): > 10000 nM
- IC50 (second compound 0.1 µM): > 10000 nM
- IC50 (second compound 0.316 µM): > 10000 nM
- IC50 (second compound 1 µM): > 10000 nM
- IC50 (second compound 3.16 µM): > 10000 nM
- IC50 (second compound 10 µM): > 10000 nM
- viability, T/C [1]: 121%
- viability, T/C [2]: 104%
- viability, T/C [3]: 129%
- viability, T/C [4]: 85.5%
- viability, T/C (second compound 0.0316 µM, first compound 3.16 µM): 112%
- viability, T/C (second compound 0.0316 µM, first compound 10 µM): 126%
- viability, T/C [5]: 101%
- viability, T/C [6]: 96.7%
- viability, T/C [7]: 108%
- viability, T/C [8]: 95.5%
- viability, T/C (second compound 0.1 µM, first compound 3.16 µM): 125%
- viability, T/C (second compound 0.1 µM, first compound 10 µM): 121%
- viability, T/C [9]: 100%
- viability, T/C [10]: 109%
- viability, T/C [11]: 103%
- viability, T/C [12]: 102%
- viability, T/C (second compound 0.316 µM, first compound 3.16 µM): 105%
- viability, T/C (second compound 0.316 µM, first compound 10 µM): 116%
- viability, T/C [13]: 92.4%
- viability, T/C [14]: 118%
- viability, T/C [15]: 95%
- viability, T/C [16]: 111%
- viability, T/C (second compound 1 µM, first compound 3.16 µM): 98.7%
- viability, T/C (second compound 1 µM, first compound 10 µM): 132%
- viability, T/C [17]: 96.9%
- viability, T/C [18]: 118%
- viability, T/C [19]: 100%
- viability, T/C [20]: 99.6%
- viability, T/C (second compound 3.16 µM, first compound 3.16 µM): 111%
- viability, T/C (second compound 3.16 µM, first compound 10 µM): 110%
- viability, T/C [21]: 108%
- viability, T/C [22]: 106%
- viability, T/C [23]: 106%
- viability, T/C [24]: 103%
- viability, T/C (second compound 10 µM, first compound 3.16 µM): 88.2%
- viability, T/C (second compound 10 µM, first compound 10 µM): 116%
